Experimental data reported in patent US20200375944A1, “LIPOIC ACID CHOLINE ESTER COMPOSITIONS AND METHODS TO GENERATE BIOCOMPATIBLE OPHTHALMIC FORMULATIONS” (ENCORE VISION, INC., priority 2015, published 2020).

Columns and labels:
human donor lenses = settings: ex-vivo; cited from earlier work
mouse lenses = settings: ex-vivo; cited from earlier work
[1] = Osmolality of EV06 compositions adjusted with glycerol; assay type: physicochemical
Experimental: The requisite osmolality range for drug-containing formulations and placebo is 280-320 mOsm/kg. Preferably, all LACE formulations need to be within 290-310 mOsm/Kg.
A series of placebos was prepared. All placebos, and the LACE-containing solutions that were subsequently prepared, contained the following, with varying amounts of Glycerol: • 0.5% (5 mg/g) Alanine • 0.005% (0.05 mg/g) Benzalkonium Chloride • Small amounts of 1 N Sodium Hydroxide, 1 N Hydrochloric Acid, to adjust pH to 4.5 • Water for Injection (added for final weight)
Target for Total Osmolality was 300 mOsm/kg.
Accordingly, a full series of solutions was prepared with slightly altered target osmolalities for the solutions without LACE, and therefore different target glycerol contents. All solutions were prepared using the same Alanine/Benzalkonium Chloride, pH 4.5 stock solution used in the placebos, so that the final composition was consistently: […]

[2] = Degradation of LACE formulation in storage (HPLC); assay type: physicochemical
Description: An issue that has rendered formulation of LACE problematic has been the propensity to destabilize by ring-opening of the dithiolane linkage to form oxidized species that compromise the activity of the molecule.

[3] = Solubility profile of LACE; assay type: physicochemical
Hygroscopicity of LACE = assay type: physicochemical
Solution pH of LACE = assay type: physicochemical
Log P of LACE = assay type: physicochemical
[4] = Applicant's earlier observations

In the case of `O[C@H](CS)[C@H](O)CS` (racemic) [dithiothreitol (DTT), dithiothreitol], the Lens softening (human donor lenses) is listed as “lens softening can be induced pharmacologically”.
In the case of `O=C(O)CCCC[C@@H]1CCSS1` (racemic) [lipoic acid], the Lens softening (mouse lenses) is given as “lens softening can be induced pharmacologically”.
In the case of `C[N+](C)(C)CCOC(=O)CCCC[C@@H]1CCSS1` [LACE, Lipoic acid choline ester], the “Additional osmolality for every 1% LACE” value [1, 4] is reported as 44-55 mOsm/kg, the “Additional osmolality for every 1% LACE, average” value [1, 4] is reported as 48 mOsm/kg and the “Effect of LACE on osmolality for every 1%” value ([1]; from Table 7 series) is reported as 57-60 mOsm/kg. For the same compound, the Degradation in storage ([2]; refrigerated temperatures) was “rapid oxidation occurs in storage as early as 1 week”, the Degradation in storage ([2]; room temperature) was “rapidly degrades into oxidized species” and the Solubility in acetonitrile ([3]; acetonitrile) was greater than 4 mg/mL in acetonitrile. For the same compound, the Solubility in water ([3]; water) was greater than 50 mg/mL in water, the Hygroscopicity (Hygroscopicity of LACE) was “Highly hygroscopic” and the “Solution pH” value (Solution pH of LACE) was 7-7.5. For the same compound, the “Log P” value (Log P of LACE) was less than 2.
